Experimental data from patent US7250428B2, “Cetylpyridinium salt of an anti-inflammatory agent and pharmaceutical compositions containing it” (Aziende Chimiche Riunite Angelini Francesco A.C.R.A.F. …, priority 2003, dated 2007).

Assay: stability in the presence of water
Assay type: physicochemical

CCCCCCCCCCCCCCCC[n+]1ccccc1.O=C([O-])Cc1ccccc1Nc1c(Cl)cccc1Cl [cetylpyridinium salt of diclofenac, cetylpyridinium (1-hexadecylpyridinium) salt of diclofenac]
stability in the presence of water: virtually infinite
